In patent publication US20050261472A1, “Binding moieties for fibrin” (Dyax Corp., priority 1999, published 2005) one finds Kd data, which are given here for 24 molecules.

Like-named read-outs stand apart in the source and are kept apart here. Bridge positions count the residues as written; N and C are the ends. Peptide text beside a SMILES is read from it.

This assay concerns the target T1, DD(E) (Homo sapiens, UniProt P02671+P02675+P02679).
T1 construct: host or cells: purchased fibrinogen clotted with thrombin, digested with plasmin, then purified by ammonium sulfate cuts and Sephacryl S200
The experiment in a line: dissociation constant against fibrin-derived polypeptide DD(E). The class given is binding. Here is the method: The soluble fibrin-derived polypeptide DD(E) was prepared following a modification of a published method (Moskoitz and Budzynksi, Biochemistry, 33: 12937-12944 (1994) and references therein). Fibrinogen containing a Factor XIII trace impurity (1 g, Grade L; purchased from American Diagnostica) was dissolved in TBS buffer and dialyzed overnight against TBS containing 5 mM citrate. The fibrinogen concentration was adjusted to 3.0 mg/ml and CaCl2 was added to a concentration of 10 mM. Clotting of the fibrinogen was initiated by the addition of thrombin to 0.5 U/ml and the clot was incubated for 3 hours at 37° C. The clot was cut up with a spatula to release water and to concentrate the clot. The clot pieces were washed twice with TBS.Ca buffer (TBS containing 2 mM CaCl2) and were centrifuged at 4,000×g to compact the clots between washes. The clot material was resuspended in 250 ml TBS containing 25 mM CaCl2 and 2 K.I.U. plasmin per mg fibrin. The clots were digested overnight at 20° C. Undigested clot was removed by pipette, and the supernatant was shaken with 10 ml of Lysine Sepharose (Pharmacia) for 30 minutes and filtered to remove the resin. Aprotinin was added to the filtrate to a concentration of 500 U/μL. Ammonium Sulfate was added to 30% saturation and the precipitated protein was removed by centrifugation. More ammonium sulfate was added to the supernatant to a final concentration of 50% saturation, and the precipitated protein was concentrated by centrifugation. The pellets, containing DD(E), were resuspended in a small volume of buffer (50 mM Tris, 150 mM NaCl, 2 mM CaCl2) (<10 ml) and chromatographed on a Sephacryl S200 (Pharmacia) size exclusion column (5×100 cm) in the same buffer. Fractions of protein eluted from the column were assayed by SDS-PAGE for DD(E). DD(E) contains subunits of 55 kD (Fragment E) and 190 kD (Fragment DD). […]
Dissociation constants were determined against DD(E) as described above.

[1] abbreviates: sequences of phage isolates from TN10-9 and TN6-6 libraries (Table 5), read-out: Kd DD(E).
[2] abbreviates: cyclic peptides of Table 12, unit inferred, read-out: Kd against DD(E).

T1 sequence (P02671 130-216): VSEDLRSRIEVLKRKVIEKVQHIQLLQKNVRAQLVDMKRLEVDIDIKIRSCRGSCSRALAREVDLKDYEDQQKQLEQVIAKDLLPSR
T1 sequence (P02675 164-491): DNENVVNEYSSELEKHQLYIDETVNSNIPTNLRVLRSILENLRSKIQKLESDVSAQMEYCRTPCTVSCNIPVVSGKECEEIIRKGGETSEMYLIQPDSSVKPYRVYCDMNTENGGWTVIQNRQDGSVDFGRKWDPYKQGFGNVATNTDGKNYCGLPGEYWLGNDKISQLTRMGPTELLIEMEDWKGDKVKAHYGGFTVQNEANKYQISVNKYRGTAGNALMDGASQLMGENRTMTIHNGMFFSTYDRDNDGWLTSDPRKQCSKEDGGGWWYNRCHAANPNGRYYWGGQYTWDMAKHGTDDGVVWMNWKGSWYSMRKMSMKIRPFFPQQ
T1 sequence (P02679 114-432): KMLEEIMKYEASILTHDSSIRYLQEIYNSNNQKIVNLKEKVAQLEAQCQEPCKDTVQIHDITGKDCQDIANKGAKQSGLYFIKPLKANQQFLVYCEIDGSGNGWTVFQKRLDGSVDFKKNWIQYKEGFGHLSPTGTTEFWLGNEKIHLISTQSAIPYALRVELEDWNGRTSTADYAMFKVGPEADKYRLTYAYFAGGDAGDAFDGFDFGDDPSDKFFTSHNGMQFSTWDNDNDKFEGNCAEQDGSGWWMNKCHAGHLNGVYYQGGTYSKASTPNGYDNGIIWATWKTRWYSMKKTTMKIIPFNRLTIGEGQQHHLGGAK
T1 sequence (P02671 36-97): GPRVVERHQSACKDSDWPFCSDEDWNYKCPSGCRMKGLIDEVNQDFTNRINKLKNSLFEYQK
T1 sequence (P02675 45-152): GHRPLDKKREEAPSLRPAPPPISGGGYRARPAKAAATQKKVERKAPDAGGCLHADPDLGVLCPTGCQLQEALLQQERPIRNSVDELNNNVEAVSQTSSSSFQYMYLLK
T1 sequence (P02679 27-88): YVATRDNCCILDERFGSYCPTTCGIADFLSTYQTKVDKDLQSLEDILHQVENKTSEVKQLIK

For the molecule `CC(C)C[C@H](NC(=O)[C@@H]1CSSC[C@H](NC(=O)[C@@H]2CCCN2C(=O)[C@@H](N)CCCNC(=N)N)C(=O)N[C@@H](CC(N)=O)C(=O)N[C@@H](Cc2ccc(O)cc2)C(=O)N[C@@H](Cc2ccc(O)cc2)C(=O)NCC(=O)N[C@@H]([C@@H](C)O)C(=O)N1)C(=O)N[C@@H](Cc1c[nH]cn1)C(N)=O` [SEQ ID NO: 16, RPCNYYGTCLH] (H-RPCNYYGTCLH-NH2; disulfide 3-9), where the note is “read-out: Kd DD(E)”, the Kd stood at 4 µM.

Take `CC[C@H](C)[C@H](NC(=O)[C@H](Cc1c[nH]c2ccccc12)NC(=O)[C@@H]1CSSC[C@H](NC(=O)[C@H](CCC(=O)O)NC(=O)[C@@H](N)Cc2c[nH]c3ccccc23)C(=O)N2CCC[C@H]2C(=O)N[C@@H](Cc2ccc(O)cc2)C(=O)NCC(=O)N[C@@H](CC(C)C)C(=O)N1)C(N)=O` [SEQ ID NO: 63, WECPYGLCWI] (H-WECPYGLCWI-NH2; disulfide 3-8; N-terminus and C-terminus assumed): the Kd (read-out: Kd DD(E)) was determined as 3.87 µM.

With `CC[C@H](C)[C@H](NC(=O)[C@H](Cc1c[nH]cn1)NC(=O)[C@@H]1CSSC[C@H](NC(=O)[C@H](Cc2c[nH]cn2)NC(=O)[C@@H](N)Cc2ccccc2)C(=O)N2CCC[C@H]2C(=O)N[C@@H](Cc2ccc(O)cc2)C(=O)N[C@@H](CC(=O)O)C(=O)N[C@@H](CC(C)C)C(=O)N1)C(N)=O` [SEQ ID NO: 60, FHCPYDLCHI] (H-FHCPYDLCHI-NH2; disulfide 3-8; N-terminus and C-terminus assumed), the dissociation constant Kd (read-out: Kd DD(E)) amounted to 2 µM.

As for `C[C@@H](O)[C@@H]1NC(=O)CNC(=O)[C@H](Cc2ccc(O)cc2)NC(=O)[C@H](Cc2ccc(O)cc2)NC(=O)[C@H](CC(=O)O)NC(=O)[C@@H](NC(=O)[C@@H]2CCCN2C(=O)[C@@H](N)CCCNC(=N)N)CSSC[C@@H](C(=O)N[C@@H](Cc2ccccc2)C(=O)N[C@@H](CC(=O)O)C(N)=O)NC1=O` [SEQ ID NO: 8, RPCDYYGTCFD] (H-RPCDYYGTCFD-NH2; disulfide 3-9), the Kd (read-out: Kd DD(E)) was 3.4 µM.

Turning to `CC(C)C[C@H](NC(=O)[C@@H]1CSSC[C@H](NC(=O)[C@@H]2CCCN2C(=O)[C@@H](N)CC(C)C)C(=O)N[C@@H](CC(=O)O)C(=O)N[C@@H](Cc2ccc(O)cc2)C(=O)N[C@@H](Cc2ccc(O)cc2)C(=O)NCC(=O)N[C@@H](CO)C(=O)N1)C(=O)N[C@@H](CC(=O)O)C(N)=O` [SEQ ID NO: 48, LPCDYYGSCLD] (H-LPCDYYGSCLD-NH2; disulfide 3-9), the Kd (read-out: Kd DD(E)) was 26 µM.

Regarding WFHCPYDLCHIL [compound 21], the Kd under setting [1] was 1.4 µM.

Regarding `CC(C)C[C@H](NC(=O)[C@@H]1CSSC[C@H](NC(=O)[C@@H]2CCCN2C(=O)[C@@H](N)CC(C)C)C(=O)N[C@@H](CC(=O)O)C(=O)N[C@@H](Cc2ccc(O)cc2)C(=O)N[C@@H](Cc2ccc(O)cc2)C(=O)NCC(=O)N[C@@H](C(C)C)C(=O)N1)C(=O)N[C@@H](CC(=O)O)C(N)=O` [SEQ ID NO: 51, LPCDYYGVCLD] (H-LPCDYYGVCLD-NH2; disulfide 3-9), the Kd (read-out: Kd DD(E)) came out at 28 µM.

For `CC(C)C[C@H](NC(=O)[C@@H]1CSSC[C@H](NC(=O)[C@@H]2CCCN2C(=O)[C@@H](N)CC(C)C)C(=O)N[C@@H](CC(=O)O)C(=O)N[C@@H](Cc2ccc(O)cc2)C(=O)N[C@@H](Cc2ccc(O)cc2)C(=O)NCC(=O)N[C@@H](CN)C(=O)N1)C(=O)N[C@@H](CC(=O)O)C(N)=O` [SEQ ID NO: 49, LPCDYYGDprCLD], the Kd (read-out: Kd DD(E)) is more than 500 µM.

Take `CC[C@H](C)[C@H](NC(=O)[C@H](Cc1c[nH]cn1)NC(=O)[C@@H]1CSSC[C@H](NC(=O)[C@@H](N)Cc2c[nH]cn2)C(=O)N2CCC[C@H]2C(=O)N[C@@H](Cc2ccc(O)cc2)C(=O)N[C@@H](CC(=O)O)C(=O)N[C@@H](CC(C)C)C(=O)N1)C(=O)N[C@@H](CC(C)C)C(N)=O` [SEQ ID NO: 59, HCPYDLCHIL] (H-HCPYDLCHIL-NH2; disulfide 2-7): under “read-out: Kd DD(E)”, the Kd worked out at 3.8 µM.

Turning to `CC(C)C[C@H](NC(=O)[C@@H]1CSSC[C@H](NC(=O)[C@@H]2CCCN2C(=O)[C@@H](N)CC(C)C)C(=O)N[C@@H](CO)C(=O)N[C@@H](Cc2ccc(O)cc2)C(=O)N[C@@H](Cc2ccc(O)cc2)C(=O)NCC(=O)N[C@@H]([C@@H](C)O)C(=O)N1)C(=O)N[C@@H](Cc1c[nH]cn1)C(N)=O` [SEQ ID NO: 12, LPCSYYGTCLH] (H-LPCSYYGTCLH-NH2; disulfide 3-9), the Kd (read-out: Kd DD(E)) was 9.8 µM.

Regarding QWECPYGLCWIQ [compound 22], the dissociation constant Kd under setting [1] amounted to 0.74 µM.

On to `CC(C)C[C@H](NC(=O)[C@@H]1CSSC[C@H](NC(=O)[C@@H]2CCCN2)C(=O)N[C@@H](CC(=O)O)C(=O)N[C@@H](Cc2ccc(O)cc2)C(=O)N[C@@H](Cc2ccc(O)cc2)C(=O)NCC(=O)N[C@@H]([C@@H](C)O)C(=O)N1)C(N)=O` [compound 32] (H-PCDYYGTCL-NH2; disulfide 2-8), for which, for the setting “read-out: Kd DD(E)”, the Kd was found to be 50 µM.

As to H-DYYGT-NH2 [compound 35], the Kd (read-out: Kd DD(E)) is more than 100 µM.

As for RFLCYDSYYHWWCSHH [compound 19], the Kd under setting [1] is approximately 10 µM.

As for `CC(C)C[C@H](NC(=O)[C@@H]1CSSC[C@H](NC(=O)[C@@H]2CCCN2C(=O)[C@@H](N)CC(C)C)C(=O)N[C@@H](CC(=O)O)C(=O)N[C@@H](Cc2ccc(O)cc2)C(=O)N[C@@H](Cc2ccc(O)cc2)C(=O)N[C@@H](C)C(=O)N[C@@H]([C@@H](C)O)C(=O)N1)C(=O)N[C@@H](CC(=O)O)C(N)=O` [SEQ ID NO: 45, LPCDYYATCLD], the Kd (read-out: Kd DD(E)) worked out at 12.3 µM.

Turning to `CC[C@H](C)[C@H](NC(=O)[C@H](Cc1c[nH]cn1)NC(=O)[C@@H]1CSSC[C@H](NC(=O)[C@H](Cc2c[nH]cn2)NC(=O)[C@H](Cc2ccccc2)NC(=O)[C@@H](N)Cc2c[nH]c3ccccc23)C(=O)N2CCC[C@H]2C(=O)N[C@@H](Cc2ccc(O)cc2)C(=O)N[C@@H](CC(=O)O)C(=O)N[C@@H](CC(C)C)C(=O)N1)C(=O)N[C@@H](CC(C)C)C(N)=O` [SEQ ID NO: 21, W F H C P Y D L C H I L] (H-WFHCPYDLCHIL-NH2; disulfide 4-9; N-terminus and C-terminus assumed), the Kd (read-out: Kd DD(E)) worked out at 2.63 µM.

On to `C[C@@H](O)[C@@H]1NC(=O)CNC(=O)[C@H](Cc2ccc(O)cc2)NC(=O)[C@H](Cc2ccc(O)cc2)NC(=O)[C@H](CC(=O)O)NC(=O)[C@@H](N)CSSC[C@@H](C(N)=O)NC1=O` [compound 34] (H-CDYYGTC-NH2; disulfide 1-7), for which the Kd (read-out: Kd DD(E)) stood at 38 µM.

“side-chain-to-side-chain cyclic peptide bearing a central Tyr-Tyr-Gly-Thr moiety [(III)]”: the Kd under setting [2] stood at 179 µM.

`CC[C@H](C)[C@H](NC(=O)[C@H](Cc1c[nH]cn1)NC(=O)[C@@H]1CSSC[C@H](NC(=O)[C@H](Cc2c[nH]cn2)NC(=O)[C@H](Cc2ccccc2)NC(=O)CN)C(=O)N2CCC[C@H]2C(=O)N[C@@H](Cc2ccc(O)cc2)C(=O)N[C@@H](CC(=O)O)C(=O)N[C@@H](CC(C)C)C(=O)N1)C(=O)N[C@@H](CC(C)C)C(N)=O` [SEQ ID NO: 57, GFHCPYDLCHIL] (H-GFHCPYDLCHIL-NH2; disulfide 4-9 (inferred); N-terminus and C-terminus assumed): where the note is “read-out: Kd DD(E)”, the Kd amounted to 6.7 µM.

As for `CC(C)C[C@H](NC(=O)[C@@H]1CSSC[C@H](N)C(=O)N[C@@H](CC(=O)O)C(=O)N[C@@H](Cc2ccc(O)cc2)C(=O)N[C@@H](Cc2ccc(O)cc2)C(=O)NCC(=O)N[C@@H]([C@@H](C)O)C(=O)N1)C(N)=O` [compound 33] (H-CDYYGTCL-NH2; disulfide 1-7), where the note is “read-out: Kd DD(E)”, the Kd was 22 µM.

On to `C[C@@H](O)[C@@H]1NC(=O)CNC(=O)[C@H](Cc2ccc(O)cc2)NC(=O)[C@H](Cc2ccc(O)cc2)NC(=O)[C@H](CC(=O)O)NC(=O)CNC(=O)CNC1=O` [(II)] (cyclo(GDYYGTG)), for which, under setting [2], the Kd was more than 500 µM.

Take `CC[C@H](C)[C@H](NC(=O)[C@H](Cc1c[nH]c2ccccc12)NC(=O)[C@@H]1CSSC[C@H](NC(=O)[C@H](CCC(=O)O)NC(=O)[C@@H](N)Cc2c[nH]c3ccccc23)C(=O)N2CCC[C@H]2C(=O)N[C@@H](Cc2ccc(O)cc2)C(=O)NCC(=O)N[C@@H](CC(C)C)C(=O)N1)C(=O)N[C@@H](CCC(N)=O)C(N)=O` [SEQ ID NO: 61, WECPYGLCWIQ] (H-WECPYGLCWIQ-NH2; disulfide 3-8): the Kd (read-out: Kd DD(E)) is 0.94 µM.

With `CC(C)C[C@H](NC(=O)[C@@H]1CSSC[C@H](NC(=O)[C@H](C)NC(=O)[C@@H](N)CC(C)C)C(=O)N[C@@H](CC(=O)O)C(=O)N[C@@H](Cc2ccc(O)cc2)C(=O)N[C@@H](Cc2ccc(O)cc2)C(=O)NCC(=O)N[C@@H]([C@@H](C)O)C(=O)N1)C(=O)N[C@@H](CC(=O)O)C(N)=O` [SEQ ID NO: 41, LACDYYGTCLD] (H-LACDYYGTCLD-NH2; disulfide 3-9), the Kd (read-out: Kd DD(E)) turned out to be 2.9 µM.

Take `CC(C)C[C@H](NC(=O)[C@@H]1CSSC[C@H](NC(=O)[C@@H]2CCCN2C(=O)[C@@H](N)CC(C)C)C(=O)N[C@@H](CC(=O)O)C(=O)N[C@@H](C)C(=O)N[C@@H](Cc2ccc(O)cc2)C(=O)NCC(=O)N[C@@H]([C@@H](C)O)C(=O)N1)C(=O)N[C@@H](CC(=O)O)C(N)=O` [SEQ ID NO: 43, LPCDAYGTCLD] (H-LPCDAYGTCLD-NH2; disulfide 3-9): the Kd (read-out: Kd DD(E)) amounted to 4.5 µM.
